Read-outs that look alike come from different tables or passages of the source.
Assays:
Assay in all cases: MIC (Table II)
Type in all cases: cell-based
[1] = tested on: Diplococcus pneumoniae 735; settings: Streptococcus pneumoniae, read-out: minimum inhibition concentration
Experimental: (§1) The antibiotic activity was determined by the diffusion method in a gelose medium at a pH of 7. The following Table expresses the minimum concentration of inhibition in mcg/ml (CMl) for the products against different microbial strains.
(§2) Using the same procedure as in Table I, the minimum inhibition concentration in mcg/ml was determined against different microbial strains with L(-) cis 7-[D(-)-α-aminophenylacetamido]-3-isopropyl-3-cepheme-4-carboxylic acid (product A) of Example 9.

Escherichia coli 070 = settings: read-out: minimum inhibition concentration
Experimental: as §1, §2

Escherichia coli 1718 = settings: read-out: minimum inhibition concentration
Experimental: as §1, §2

Escherichia coli 1751 = settings: read-out: minimum inhibition concentration
Experimental: as §1, §2

Escherichia coli 4965 = settings: read-out: minimum inhibition concentration
Experimental: as §1, §2

Escherichia coli 5003 = settings: read-out: minimum inhibition concentration
Experimental: as §1, §2

Escherichia coli 51 = settings: read-out: minimum inhibition concentration
Experimental: as §1, §2

Escherichia coli 5369 = settings: read-out: minimum inhibition concentration
Experimental: as §1, §2

Escherichia coli 8497 = settings: read-out: minimum inhibition concentration
Experimental: as §1, §2

Escherichia coli 9927 = settings: read-out: minimum inhibition concentration
Experimental: as §1, §2

Escherichia coli Taylor = settings: read-out: minimum inhibition concentration
Experimental: as §1, §2

[2] = tested on: Klebsiella pneumoniae 52145; settings: read-out: minimum inhibition concentration
Experimental: as §1, §2

Proteus mirabilis 3113 = settings: read-out: minimum inhibition concentration
Experimental: as §1, §2

Proteus mirabilis 6194 = settings: read-out: minimum inhibition concentration
Experimental: as §1, §2

Proteus mirabilis 8065 = settings: read-out: minimum inhibition concentration
Experimental: as §1, §2

[3] = tested on: Salmonella typhimurium 420; settings: Salmonella enterica, read-out: minimum inhibition concentration
Experimental: as §1, §2

Shigella flexneri = settings: read-out: minimum inhibition concentration
Experimental: as §1, §2

[4] = tested on: Staphylococcus aureus 1098; settings: read-out: minimum inhibition concentration
Experimental: as §1, §2

[5] = tested on: Staphylococcus aureus 397; settings: read-out: minimum inhibition concentration
Experimental: as §1, §2

[6] = tested on: Staphylococcus aureus 4546; settings: Staphylococcus aureus, 4546, read-out: minimum inhibition concentration
Experimental: as §1, §2

[7] = tested on: Staphylococcus aureus 54146; settings: read-out: minimum inhibition concentration
Experimental: as §1, §2

[8] = tested on: Staphylococcus aureus 5880; settings: read-out: minimum inhibition concentration
Experimental: as §1, §2

[9] = tested on: Staphylococcus aureus 8514; settings: read-out: minimum inhibition concentration
Experimental: as §1, §2

[10] = tested on: Staphylococcus aureus 889; settings: Staphylococcus aureus, 889, read-out: minimum inhibition concentration
Experimental: as §1, §2

[11] = tested on: Staphylococcus aureus 9373; settings: Staphylococcus aureus, 9373, read-out: minimum inhibition concentration
Experimental: as §1, §2

[12] = tested on: Staphylococcus aureus 9482; settings: Staphylococcus aureus, 9482, read-out: minimum inhibition concentration
Experimental: as §1, §2

[13] = tested on: Staphylococcus aureus 9729; settings: Staphylococcus aureus, 9729, read-out: minimum inhibition concentration
Experimental: as §1, §2

[14] = tested on: Staphylococcus aureus 980; settings: 24h, read-out: minimum inhibition concentration
Experimental: as §1, §2

[15] = tested on: Staphylococcus aureus A8P; settings: read-out: minimum inhibition concentration
Experimental: as §1, §2

[16] = tested on: Staphylococcus aureus Frottis nasal; settings: read-out: minimum inhibition concentration
Experimental: as §1, §2

[17] = tested on: Streptococcus hemolyticus 561; settings: Streptococcus pyogenes, read-out: minimum inhibition concentration
Experimental: as §1, §2

[18] = tested on: Streptococcus hemolyticus 920; settings: Streptococcus pyogenes, read-out: minimum inhibition concentration
Experimental: as §1, §2

Measured: MIC

CC(C)C1=C(C(=O)O)N2C(=O)[C@@H](NC(=O)[C@H](N)c3ccccc3)[C@H]2SC1 [Example 9, L (+) cis 7-[D (-)-α-aminophenylacetamido]-3-isopropyl-3-cepheme-4-carboxylic acid]
0.4 µg/mL: [1]; 24h | [4]; 24h
30 µg/mL: Escherichia coli 1751; 24h | Escherichia coli 1751; 48h | Escherichia coli 1751; 72h | Escherichia coli 4965; 24h | Escherichia coli 5369; 24h | [2]; 24h
> 100 µg/mL: Escherichia coli 51; 48h | Escherichia coli 9927; 48h | [2]; 72h | Proteus mirabilis 3113; 48h | Proteus mirabilis 6194; 72h | Proteus mirabilis 8065; 48h | [3]; 72h
40 µg/mL: Escherichia coli 070; 24h | Escherichia coli 070; 48h | Escherichia coli 070; 72h | Escherichia coli 1718; 24h | Escherichia coli 1718; 48h | Escherichia coli 4965; 48h | Escherichia coli 4965; 72h | Escherichia coli 5003; 24h | Escherichia coli 5003; 48h | Escherichia coli 5003; 72h | Escherichia coli 5369; 48h | Escherichia coli Taylor; 24h | Escherichia coli Taylor; 48h | Shigella flexneri; 48h | Shigella flexneri; 72h
60 µg/mL: Escherichia coli 1718; 72h | Escherichia coli Taylor; 72h | [2]; 48h | Proteus mirabilis 6194; 24h | Proteus mirabilis 8065; 24h | [3]; 24h | [3]; 48h
0.6 µg/mL: [6]; 24h | [17]; 24h
20 µg/mL: Shigella flexneri; 24h | [10]; 72h
3 µg/mL: [4]; 72h | [6]; 72h | [8]; 48h | [11]; 48h | [15]; 48h | [16]; 48h | [18]; 72h
100 µg/mL: Escherichia coli 51; 24h | Escherichia coli 5369; 72h | Escherichia coli 8497; 24h | Escherichia coli 8497; 48h | Escherichia coli 8497; 72h | Escherichia coli 9927; 24h | Proteus mirabilis 3113; 24h
> 40 µg/mL: [14] | [17]; 48h
1 µg/mL: [1]; 48h | [1]; 72h | [4]; 48h | [7]; 24h | [7]; 48h | [9]; 24h | [11]; 24h | [12]; 24h | [15]; 24h
80 µg/mL: Proteus mirabilis 6194; 48h
5 µg/mL: [5]; 48h | [10]; 24h | [11]; 72h | [13]; 72h
10 µg/mL: [5]; 72h | [8]; 72h | [10]; 48h | [15]; 72h | [16]; 72h
2 µg/mL: [5]; 24h | [6]; 48h | [7]; 72h | [8]; 24h | [9]; 48h | [9]; 72h | [12]; 48h | [12]; 72h | [13]; 24h | [13]; 48h | [16]; 24h | [18]; 24h | [18]; 48h

From US4016158A, “Cephalosporin derivatives” (Roussel-UCLAF, priority 1971, dated 1977)
